In PMC10609940, “Systemic Dendrimer-Peptide Therapies for Wet Age-Related Macular Degeneration” (Pharmaceutics, 2023):
Where a SMILES comes first, the peptide text is derived from it. [ ]: non-standard residue; d: D form. Cya = N[C@@H](CS(=O)(=O)O)C(=O)O

Legend:
HUVEC cells [1] = experiment: In vitro vessel (tube) formation assay on Matrigel; type: cell-based, human
Experimental: First, 96-well plates were coated with 75 µL of Matrigel and left at room temperature for 15 min before being placed into 37 °C incubators for an additional 30 min. Then, D-ALG1001 was dissolved at twice the desired concentration and 50 µL of the drug solution was added to the wells. HUVEC cells were then added to each well at a density of 70,000 cells/cm^2. Live-cell images were taken at 12 h for analysis.
To compare the dose–response efficacy of free and D-ALG in a physiologically relevant model, we utilized an in vitro model of blood vessel formation. HUVEC cells were treated with a gradient concentration of D-ALG and ALG-1001 for 24 h at three different magnitudes of doses. The cells were then seeded on Matrigel after which cells naturally migrate to form blood vessel-like tubule structures. The images were analyzed with the Angiogenesis Analyzer plug-in on ImageJ to extract relevant metrics that measure the connectivity and integrity of tube networks (Figure 3A and Figure S8).
Figure 3 In vitro inhibition of vessel formation. (A) Image analysis of HUVECs seeded onto a Matrigel matrix using the Angiogenesis Analyzer plug-in for ImageJ. […]

HUVEC cells [2] = experiment: Wound-healing (scratch) assay; type: cell-based, human; conditions: HUVEC monolayer pretreated 24 h; 24 h after injury; dose not stated
Experimental: HUVEC cells were seeded at a density of 5 × 10^4 cells per well in 24-well plates and set aside for at least 72 h for a uniform monolayer of cells to form. Cells were treated with D-ALG1001 and ALG-1001 for 24 h. A centimeter-long scratch was introduced to the cell monolayer with the tip of a 200 µL pipette tip. Images were taken on a Nikon
In addition to cell morphological and motility changes measured by tube formation assays, we investigated the activity of D-ALG and ALG-1001 in a wound-healing assay. Previous studies have utilized this method to assess cell migration and proliferation. Monolayers of HUVECs were pretreated with D-ALG or ALG-1001 followed by scratching the monolayer with a pipette tip. Images were taken at the time of the wound and at 24 h after injury. The proliferative activity of endothelial cells can be measured by the area that was healed postinjury to the monolayer. Untreated cells managed to heal up to 80% of the initial damage after 24 h, while cells treated with D-ALG and ALG-1001 healed up to 50% of the initial wound area. […] Because neovascularization is driven in part by the proliferation and migration of endothelial cells in the disease area, reductions in these activities as observed in cells treated with D-ALG can modulate endothelial cell contributions to the neovascularization process.

[3] = system: phospho-ERK1/2 and phospho-FAK (Y397) in HUVEC cells; experiment: Western blot of ERK and FAK pathway activation after VEGF stimulation; type: cell-based, human; conditions: 100 µM on a peptide basis, 24 h pretreatment, VEGF 5 min; trend
Experimental: HUVEC cells were seeded at a density of 5 × 10^4 cells per well in 24-well plates 24 h before treatment. Cells were treated with D-ALG1001 and ALG-1001 for 24 h before activation with VEGF for 5 min. Cells were collected and lysed for Western blotting using T-Per buffer (ThermoFisher) supplemented with PhosStop and proteinase inhibitor cocktail. Cells were lysed with Trizol and processed as previously described for qPCR analysis.
In brief, the concentration of protein was determined with the BCA protein assay kit (Thermo Scientific, Rockford, IL, USA). Equal amounts of protein were denatured and resolved on 4–15% TGX gels (Bio-Rad, Hercules, CA, USA). Gels were transferred to nitrocellulose membranes, blocked with 3% BSA at RT for 1 h and probed for GAPDH, FAK, pFAK, MAPK, and pMAPK at 4 °C overnight. Membranes were washed thrice before incubation with HRP-conjugated secondary antibodies followed by incubation with chemiluminescent substrate for visualization.
To elucidate the mechanism through which D-ALG and free ALG-1001 influence angiogenic function, we pretreated the cells with D-ALG and free ALG-1001 for 24 h. The cells were then stimulated with a high dose of exogenous VEGF for 5 min after which the samples were collected for Western blotting. […]

[4] = system: VEGF-A expression in HUVEC; experiment: VEGF-A expression by endothelial cells (qPCR); type: cell-based, human; conditions: HUVEC coincubated with VEGF-A
[5] = system: IL1β and TNFα expression in RAW264.7 cells; experiment: In vitro inflammation model, LPS-stimulated macrophages (qPCR); type: cell-based, Murine; conditions: 24 h pretreatment, LPS 3 h
[6] = system: FAK, p-FAK (Y397), p44/42 ERK, phospho-p44/42 ERK in choroidal tissue; experiment: ELISA of FAK and ERK pathway activation in choroid, laser CNV model; type: in vivo, Brown Norway rats; conditions: 150 µg peptide basis i.p. every 4 days
Experimental: (§1) On the day of CNV induction (Day 0), D-ALG1001 and ALG1001 was administered intraperitoneally at a dose of 150 µg on a peptide basis. Subsequent doses were administered every 4 days. At days 7 and 14, mice were sacrificed and enucleated. Eyes used for CNV image were fixed in 10% formalin for 1 h. Eyes used for qPCR, ELISA, and Western blotting were immediately stored at −80 °C until use.
In brief, 500 µL of T-Per supplemented with PhosStop and proteinase inhibitor cocktail was added to tubes containing dissected choroid. A scoop of 1.6 mm steel homogenization beads was added to each sample and then placed in TissueLyserLT (Qiagen, Germantown, MD, USA) at an oscillation frequency of 50 cycles/s for 15 min.
For protein extracted from tissues, total FAK and FAK (Phospho) [pY397] ELISA kits (Invitrogen) were used to quantify the level of protein expression, and the measured protein expression was normalized to the total protein amount of each sample as determined from BCA assays.
To evaluate the activation of FAK and ERK pathways, eyes were enucleated at set time points, and the choroidal tissue dissected out. Tissues were submerged in a mixture of T-per, proteinase inhibitor, and PhosStop with stainless-steel homogenization beads and homogenized to produce protein extracts. Total FAK, total ERK, p-FAK (Y397), and p-44/42 ERK ELISA kits were used to quantify the amount of total and phosphorylated proteins in FAK and ERK pathways. […] However, the level of total FAK protein in ALG-1001-treated animals was elevated at day 14.

[7] = system: VEGF-A, TNFα, IL1β expression in choroid; experiment: qPCR of VEGF-A, TNFα and IL1β in choroid, laser CNV model; type: in vivo, Brown Norway rats; conditions: 150 µg peptide basis i.p. every 4 days, days 7 and 14, trend
[8] = system: choroidal neovascularization (CNV) area; experiment: In vivo attenuation of CNV formation, intraperitoneal dosing, laser CNV model; set-up: species or system Brown Norway rats
Experimental: as §1
(§2) Eyes were mounted by introducing four radial relaxation cuts. […] All images were processed with ImageJ.
We then evaluated whether the improved protection and targeting of D-ALG allowed for less invasive administration routes. A laser was used to induce CNV at day 0, and the first dose (150 µg peptide basis) of ALG-1001 and D-ALG was administered intraperitoneally. The animals were dosed once every 4 days at 150 µg of peptide basis (7.5 mg/kg). Choroidal flatmounts of eyes at day 7 and 14 were imaged, and the CNV area was calculated using ImageJ.

[9] = system: choroidal neovascularization (CNV) area; experiment: In vivo attenuation of CNV formation, intravitreal injection, laser CNV model; set-up: species or system Brown Norway rats; conditions: intravitreal injection after CNV induction; day 7
Description: as §2
A Micron III SLO scope and a laser attachment were used to induce CNV formation in mice. The laser CNV model was chosen due to its consistency in creating CNV and the progression of the CNV process. We first evaluated whether dendrimer conjugation impeded the peptide from attenuating CNV by first injecting free ALG-1001 and D-ALG intravitreally after CNV induction. The eyes were then collected on day 7 and the CNV area quantified.

Structure (SMILES): C[C@@H](O)[C@H](NC(=O)[C@H](CS(=O)(=O)O)NC(=O)CNC(=O)[C@H](CCCNC(=N)N)NC(=O)CN)C(=O)N1CCC[C@H]1C(=O)O [ALG-1001] (H-GRG[Cya]TP-OH; N-terminus and C-terminus assumed)
- vessel formation compared to untreated cells (HUVEC cells [1]; 1 mM, Angiogenesis Analyzer, ImageJ): significantly reduced vessel formation
- vessel formation, effect of lower doses (HUVEC cells [1]; doses below 1 mM): not effective
- initial wound area healed (HUVEC cells [2]): up to 50%
- phospho-ERK1/2 expression compared to untreated, VEGF stimulated controls [3]: lower levels
- phospho-FAK expression compared to untreated, VEGF stimulated controls [3]: lower levels
- VEGF production compared to the control [4]: did not have statistically significant increases
- impact on IL1β production ([5]; high and low dose): no impact
- reduction of TNFα expression ([5]; high dose 1 mM): 20%
- total ERK ([6]; day 7): remained relatively constant
- total ERK compared to untreated animals ([6]; day 14): slight trend in the reduction
- total FAK protein ([6]; day 14): elevated
- p-FAK protein compared to untreated controls ([6]; days 7 and 14): trend in the reduction
- IL1β expression [7]: only reduced at day 14
- TNFα level (relative expression) [7]: lower TNFα levels across both time points
- VEGF-A production (relative expression) [7]: lower VEGF-A production at 14 days only
- reduction of CNV area on day 14 ([8]; 150 µg peptide basis (7.5 mg/kg) intraperitoneally every 4 days, choroidal flatmounts, ImageJ): 20%
- CNV area at day 14 (in words) ([8]; 150 µg peptide basis intraperitoneally every 4 days): recovered
- formation of CNV after intravitreal administration [9]: significantly inhibited the formation of CNV
